Laboratory results from patent US20210275543A1, “METHODS FOR THE TREATMENT OF MITOCHONDRIAL GENETIC DISEASES” (NSERM (INSTITUT NATIONAL DE LA SANTÉ ET DE LA RECHERCHE …, priority 2017, published 2021).

Key:
Ndufs4−/− mice = test: PIK3CA inhibition in Ndufs4 knockout mouse model of Leigh syndrome (survival); assay type: in vivo; conditions: 50 mg·kg-1 daily p.o.
Description: Leigh Syndrome is a severe mitochondrial disease that occurs in about 1:40,000 newborns and is associated with retarded growth, muscular deficits including myopathy and dyspnea, lactic acidosis, and a characteristic progressive necrotizing encephalopathy of the vestibular nuclei, cerebellum, and olfactory bulb (Budde et al., 2002). Ndufs4 encodes a subunit of Complex I of the mitochondrial electron transport chain; mutations in the NDUFS4 gene cause LS in humans (Budde et al., 2000), and the Ndufs4 knockout mouse is a murine model of LS (Kruse et al., 2008). Ndufs4−/− mice have decreased Complex I levels and activity in multiple tissues and show severe and progressive symptoms of mitochondrial disease that mirror human LS. LS results in death at an average of […] in humans, and Ndufs4 KO mice show a similar early-life mortality with an average lifespan of just 60 days. Heterozygous Ndufs4 knockout mice on a C57Bl/6NIA background were bred to produce homozygous KO animals. Animals were fed ad libitum and housed at a constant ambient temperature in a 12-hour light cycle. Animal procedures were approved by the “Services Vétérinaires de la Prefecture de Police de Paris” Departmental Director and by the ethical committee of the Paris Descartes University.
At the age of 21 days, Ndufs4−/− mice were treated with the PI3KCA inhibitor, BYL719 (MedChem Express; 50 mg·kg-1 in 0.5% carboxymethylcellulose (Sigma Aldrich), daily p.o.) (n=9) or vehicle (0.5% carboxymethylcellulose (Sigma Aldrich), daily p.o.) (n=8).

[1] = test system: primary dermal fibroblasts from patients with mitochondrial disorders and controls; test: Analysis of mitochondrial membrane potential and morphology (TMRE / 10-NAO staining, confocal microscopy and flow cytometry); assay type: cell-based, human
Method: (§1) Punch skin biopsies were collected using standard methods.
(§2) To generate dermal fibroblast cultures, biopsies were minced and incubated at room temperature in 0.05% trypsin-EDTA (ThermoFisher 25300054) solution for 30 min with gentle shaking. Cells were collected by centrifuging at 700 g for 10 min, re-suspended in cell culture media containing 25% FBS, and plated onto 24 well plates to establish lines. Fibroblast cultures were grown and maintained in 1×MEM (Corning 10-010-CV) supplemented with 25% FBS and penicillin/streptomycin (Corning 30-001-CI) to a final concentration of 100 IU penicillin and 500 μg/mL streptomycin.
Cells at similar population doubling (PD-10+/−2) were plated 1:4 from confluent cultures onto coverglass chamberslides and allowed to grow until ˜80% confluent. Media was replaced and supplemented with […] BYL719 (Chem Express) in DMSO (Fisher BP321-1), or equal volume DMSO, for 48 hours. Cells were stained for 15 min in media with 100 nM tetramethylrhodamine ethyl ester (TMRE, Fisher BDB564696) and 5 μg/mL Hoechst 33342 (Biotium 89139-126) and imaged on a Leica SP5 confocal microscope. Samples were treated and imaged in one session using identical imaging parameters. Flow cytometry analysis was performed by staining cells with only TMRE or 10-N-nonyl acridine orange (10-NAO), dissociating with trypsin-EDTA containing dye for 10 min at room temperature, collecting cells by centrifugation, resuspension in cold PBS, and analysis on a BD Canto II flow cytometer using 488 nm excitation with 585/42 BP and 530/30 BP filters for TMRE and 10-NAO, respectively. A single gate was set to cells using forward and side scatter and all settings unchanged throughout data collection. 10,000 or more events were collected for every sample.

[2] = test system: phosphorylated ribosomal protein S6 (mTORC1 signaling); test: Analysis of S6 phosphorylation by western blotting in primary dermal fibroblasts; assay type: cell-based, human; conditions: for S6 phosphorylation (phosphorylated ribosomal protein S6 vs total rpS6, GAPDH): 48 hours of treatment, 5 μmol/L BYL719
Method: as §1, §2
Cells at similar population doubling (PD-10+/−2) were plated 1:4 from confluent cultures and allowed to grow until ˜80% confluent. Media was replaced with media containing 5 μmol/L BYL719 (Chem Express) in DMSO or equal volume DMSO for 48 hours. Cultures were rinsed with 1×PBS, treated for 10 min with 0.05% Trypsin, collected by centrifugation at 4° C., and pellets were flash frozen on dry ice. Protein lysates were collected by directly adding 1×RIPA buffer (Pierce 89900) containing protease and phosphatase inhibitors (Pierce PI78441) to cell pellets, sonicating in 10 one-second bursts, on ice, with an XL-2000 QSonica at maximum output, and centrifuging to remove cell debris. Protein concentration was determined by BCA assay (Pierce PI23228), equal protein run on 4-12% bis-tris 26 well NuPage midigels (Fisher WG1403), and transferred to nitrocellulose blots (Fisher IB23001). Blots were blocked in LICOR Odyssey blocking buffer (LICOR 427-40100), probed with primary antibodies anti-pS6, anti-S6, and anti-GAPDH (Cell Signaling 4858P, 2217S, and 2118S, respectively) followed by secondary antibody IRDye800 donkey anti-rabbit (LICOR 925-32213) and imaged using LICOR Odyssey Clx scanning imager as previously described^9. Data quantified using NIH ImageJ^11.

[3] = primary MELAS patient and control fibroblast lines, FIG. 1A

Cc1nc(NC(=O)N2CCC[C@H]2C(N)=O)sc1-c1ccnc(C(C)(C)C(F)(F)F)c1 [BYL719, Alpelisib]
animal survival (Ndufs4−/− mice; Ndufs4−/− mice treated from age 21 days, vs vehicle, FIG. 2): dramatically improved animal survival | appearance of treated animals (Ndufs4−/− mice; Ndufs4−/− mice, 120 days later): overtly normal appearance | time alive (Ndufs4−/− mice; Ndufs4−/− mice, all placebo-treated mice died within 80 days): ≥ 120 days | mitochondrial membrane potential (TMRE staining intensity) and morphology (fragmentation, depolarized mitochondria) ([1]; MELAS fibroblasts, 48 hours, confocal microscopy, FIG. 1C): attenuated these phenotypes in all MELAS fibroblasts | membrane potential (TMRE) by flow cytometry ([1]; MELAS fibroblasts, flow cytometry, data not shown): rescue | mitochondrial membrane potential (TMRE staining intensity) and morphology ([1]; control cells, 48 hours, confocal microscopy, FIG. 1C): no overt impact | pS6 levels ([2]; all cell lines (patients with mitochondrial disorders and controls), 48 hours, FIGS. 1A and 1B): reduced pS6 levels in all cell lines | S6 phosphorylation (phosphorylated ribosomal protein S6 vs total rpS6, GAPDH) ([2]; other mitochondrial disorders and control fibroblast lines, FIG. 1B): inhibited S6 phosphorylation | S6 phosphorylation (phosphorylated ribosomal protein S6 vs total rpS6, GAPDH) [2, 3]: inhibited S6 phosphorylation

cyclosporin A
S6 phosphorylation (phosphorylated ribosomal protein S6 vs total rpS6, GAPDH) [2, 3]: no significant impact
